Experimental data as given in US8937193B2, “Apogossypolone derivatives as anticancer agents” (Sanford-Burnham Medical Research Institute, priority 2009, dated 2015).
Values joined by “and” are separate entries in the source; they are usually repeats but may differ in a detail not shown here. Identical values can stand only once. “Also recorded” adds a separate entry of the source.

Assays:
[1] = administered orally (6a); cited from earlier work
BP3 cell line = assay: Annexin V-FITC and propidium iodide apoptosis assay, BP3; format: cell-based, human; settings: for EC50: Homo sapiens, BP3, 24 h, Annexin V-FITC and propidium iodide assay, 1 day
EC50 values of FIG. 3(B) = settings: test not named
PC3 cell line = assay: ATP-LITE cell viability assay, PC3; format: cell-based; settings: Homo sapiens, PC-3, 72 h, 3 days
Experimental: (§1) The activity of the compounds against human cancer cell lines (PC3, H460, H1299) were assessed by using the ATP-LITE assay (PerkinElmer). All cells were seeded in either […] or RPMI1640 medium with 5 mM L-glutamine supplemented with 5% fetal bovine serum (Mediatech Inc.), penicillin and streptomycin (Omega). For maintenance, cells were cultured in 5% FBS. Cells plated into 96 well plates at varying initial densities depending on doubling time. H460 and H1299 plated at 2000 cells/well and PC3 at 3000 cells/well. Compounds were diluted to final concentrations with 0.1% DMSO. Prior to dispensing compounds onto cells, fresh 5% media was placed into wells. Administration of compounds occurred 24 hours after seeding into the fresh media. Cell viability was evaluated using ATP-LITE reagent (PerkinElmer) after 72 hours of treatment. Data were normalized to the DMSO control-treated cells using Prism version 5.01 (Graphpad Software).

H460 cell line = assay: ATP-LITE cell viability assay, H460; format: cell-based; settings: Homo sapiens, NCI-H460, 72 h, 3 days
Experimental: (§2) The activity of the compounds of Formula I against human cancer cell lines (PC3ML, H460, H1299, RS11846) may be assessed by using the ATP-LITE assay (PerkinElmer). All cells are seeded in either F12 or RPMI1640 medium with 5 mM L-glutamine supplemented with 5% fetal bovine serum (Mediatech Inc.), penicillin and streptomycin (Omega). For maintenance, cells are cultured in 5% FBS. Cells plated into 96 well plates at varying initial densities depending on doubling time. H460 and H1299 plated at 2000 cells/well, A549 and PC3 at 3000 cells/well, and […] at 10,000 cells/well. The compounds are diluted to final concentrations with 0.1% DMSO. Prior to dispensing the compounds onto cells, fresh 5% media is placed into the wells. Administration of compounds occurs 24 hours after seeding into the fresh media. Cell viability may be evaluated using ATP-LITE reagent (PerkinElmer) after 72 hours of treatment. Data are normalized to the DMSO control-treated cells using Prism version 5.01 (Graphpad Software).
as §1

H1299 cell line = assay: ATP-LITE cell viability assay, H1299; format: cell-based; settings: Homo sapiens, NCI-H1299, 72 h, 3 days
Experimental: as §2, §1

primary CLL cells = assay: Annexin-V apoptosis assay, primary CLL cells; format: cell-based, human
[2] = In vitro plasma stability; settings: for Plasma Stability (T = 40 mins): Table 4; for degraded after 1 hour incubation in rat plasma: rat plasma (preparations)
[3] = In vitro microsomal stability; settings: Table 4
RS4;11 cell line = assay: Annexin V-FITC and propidium iodide apoptosis assay, RS4;11; format: cell-based; settings: Homo sapiens, RS4-11, 24 h, 1 day
PPC-1 xenograft tumors = assay: PPC-1 tumor xenograft study in nude mice
Bcl-XL = Bcl-XL (Homo sapiens (Human), UniProt Q07817); assay: Fluorescence polarization competitive binding assay (FPA), Bcl-XL; settings: displacement of BH3 peptide
Bcl-XL, sequence (Q07817 1-211): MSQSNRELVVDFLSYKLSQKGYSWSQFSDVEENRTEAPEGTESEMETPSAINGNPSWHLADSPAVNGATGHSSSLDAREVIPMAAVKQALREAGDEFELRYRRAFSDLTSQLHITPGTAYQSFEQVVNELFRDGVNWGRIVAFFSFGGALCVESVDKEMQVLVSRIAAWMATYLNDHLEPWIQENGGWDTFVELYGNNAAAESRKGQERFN

EC50 (PC3 cell line)	EC50 (H460 cell line)	EC50 (H1299 cell line)	Structure (SMILES)	Plasma Stability (T = 40 mins) [2]	also measured
			Cc1cc2c(C(C)C)c(O)c(O)c(C=O)c2c(O)c1-c1c(C)cc2c(C(C)C)c(O)c(O)c(C=O)c2c1O [(−) 1]		maximum tolerated dose (MTD) [1]: 50 mg/kg
			CN(C)CC[C@H](CSc1ccccc1)Nc1ccc(S(=O)(=O)NC(=O)c2ccc(N3CCN(Cc4ccccc4-c4ccc(Cl)cc4)CC3)cc2)cc1[N+](=O)[O-] [ABT-737, reference compound]		cell (cytotoxic) activity against BP3 cell lines (BP3 cell line; result in words): no cell activity; also recorded: no cytotoxic activity
			Cc1cc2c(C(=O)Cc3ccccc3)c(O)c(O)cc2c(O)c1-c1c(C)cc2c(C(=O)Cc3ccccc3)c(O)c(O)cc2c1O [BI79D10]		EC50 (EC50 values of FIG. 3(B)): 360 nM
2400 ± 240 nM	2200 ± 760 nM	1320 ± 300 nM	CC1=C(C2=C(C)C(=O)c3c(cc(O)c(O)c3CCC3CCCCC3)C2=O)C(=O)c2cc(O)c(O)c(CCC3CCCCC3)c2C1=O [Compound 6d, 5,5′-bis(2-cyclohexylethyl)-6,6′,7,7′-tetrahydroxy-3,3′-dimethyl-2,2′-binaphthyl-1,1′,4,4′-tetraone]	74%	Microsomal Stability (T = 40 mins) [3]: 98%
			CC1=C(C2=C(C)C(=O)c3c(cc(O)c(O)c3CCc3ccc(C)cc3)C2=O)C(=O)c2cc(O)c(O)c(CCc3ccc(C)cc3)c2C1=O [Compound 6f, 6,6′,7,7′-tetrahydroxy-3,3′-dimethyl-5,5′-bis(4-methylphenethyl)-2,2′-binaphthyl-1,1′,4,4′-tetraone]	86%	LD50 primary CLL samples (primary CLL cells; six CLL samples from six different patients): 1.0 to 16.9 µM; LD50 primary CLL samples (primary CLL cells; two primary CLL samples, one day Annexin-V apoptosis assay): 10 µM and 15 µM; degraded after 1 hour incubation in rat plasma [2]: 14%; average body weight losses during the treatment (PPC-1 xenograft tumors; 50 mg/kg i.p.): 6.8%; signs of toxicity (PPC-1 xenograft tumors; 50 mg/kg i.p.): no observable signs of toxicity; weight loss in first week (PPC-1 xenograft tumors; 50 mg/kg i.p. three times in first week): ~5%
2000 ± 170 nM	1620 ± 160 nM	2160 ± 270 nM	CC1=C(C2=C(C)C(=O)c3c(cc(O)c(O)c3CCC(C)(C)c3ccccc3)C2=O)C(=O)c2cc(O)c(O)c(CCC(C)(C)c3ccccc3)c2C1=O [Compound 6h, 6,6′,7,7′-tetrahydroxy-3,3′-dimethyl-5,5′-bis(3-methyl-3-phenylbutyl)-2,2′-binaphthyl-1,1′,4,4′-tetraone]		
			CC1=C(C2=C(C)C(=O)c3c(cc(O)c(O)c3Cc3ccccc3)C2=O)C(=O)c2cc(O)c(O)c(Cc3ccccc3)c2C1=O [Compound 6i, 5,5′-dibenzyl-6,6′,7,7′-tetrahydroxy-3,3′-dimethyl-2,2′-binaphthyl-1,1′,4,4′-tetraone]	95%	IC50 (Bcl-XL): 160 to 630 nM; degraded after 1 hour incubation in rat plasma [2]: 5%
8990 ± 2490 nM	1440 ± 200 nM	2380 ± 210 nM	CC1=C(C2=C(C)C(=O)c3c(cc(O)c(O)c3CCc3ccc(OC(F)(F)F)cc3)C2=O)C(=O)c2cc(O)c(O)c(CCc3ccc(OC(F)(F)F)cc3)c2C1=O [Compound 6j, 6,6′,7,7′-tetrahydroxy-3,3′-dimethyl-5,5′-bis(4-(trifluoromethoxy)phenethyl)-2,2′-binaphthyl-1,1′,4,4′-tetraone]		
2620 ± 310 nM	1480 ± 20 nM	1910 ± 170 nM	CC1=C(C2=C(C)C(=O)c3c(cc(O)c(O)c3CCCc3ccc(F)cc3)C2=O)C(=O)c2cc(O)c(O)c(CCCc3ccc(F)cc3)c2C1=O [Compound 6k, 5,5′-bis(3-(4-fluorophenyl)propyl)-6,6′,7,7′-tetrahydroxy-3,3′-dimethyl-2,2′-binaphthyl-1,1′,4,4′-tetraone]		
			CC1=C(C2=C(C)C(=O)c3c(cc(O)c(O)c3Cc3ccc(Cl)cc3)C2=O)C(=O)c2cc(O)c(O)c(Cc3ccc(Cl)cc3)c2C1=O [Compound 6l, 5,5′-bis(4-chlorobenzyl)-6,6′,7,7′-tetrahydroxy-3,3′-dimethyl-2,2′-binaphthyl-1,1′,4,4′-tetraone]		IC50 (Bcl-XL): 160 to 630 nM
2970 ± 980 nM	980 ± 150 nM	10300 ± 3840 nM	CC1=C(C2=C(C)C(=O)c3c(cc(O)c(O)c3Cc3ccc(-c4ccccc4)cc3)C2=O)C(=O)c2cc(O)c(O)c(Cc3ccc(-c4ccccc4)cc3)c2C1=O [Compound 6m, 5,5′-bis(biphenyl-4-ylmethyl)-6,6′,7,7′-tetrahydroxy-3,3′-dimethyl-2,2′-binaphthyl-1,1′,4,4′-tetraone]		
5440 ± 340 nM	6160 ± 1480 nM	> 30000 nM	CC1=C(C2=C(C)C(=O)c3c(cc(O)c(O)c3C(=O)NCc3cccc(C)c3)C2=O)C(=O)c2cc(O)c(O)c(C(=O)NCc3cccc(C)c3)c2C1=O [Compound 8b, 6,6′,7,7′-tetrahydroxy-3,3′-dimethyl-N^5,N^5′-bis(3-methylbenzyl)-1,1′,4,4′-tetraoxo-1,1′,4,4′-tetrahydro-2,2′-binaphthyl-5,5′-dicarboxamide]		
			CCc1ccc(CCNC(=O)c2c(O)c(O)cc3c2C(=O)C(C)=C(C2=C(C)C(=O)c4c(cc(O)c(O)c4C(=O)NCCc4ccc(CC)cc4)C2=O)C3=O)cc1 [Compound 8c, N^5,N^5′-Bis(4-ethylphenethyl)-6,6′,7,7′-tetrahydroxy-3,3′-dimethyl-1,1′,4,4′-tetraoxo-1,1′,4,4′-tetrahydro-2,2′-binaphthyl-5,5′-dicarboxamide]		IC50 (Bcl-XL): 160 to 630 nM
			Cc1cc2c(C(C)C)c(O)c(O)c(C=O)c2c(O)c1-c1c(C)cc2c(C(C)C)c(O)c(O)c(C=O)c2c1O [Gossypol, 1,1′,6,6′,7,7′-Hexahydroxy-5,5′-diisopropyl-3,3′-dimethyl-2,2′-binaphthyl-8,8′-dicarboxaldehyde]		mortality in first week (PPC-1 xenograft tumors; 25 mg/kg, i.p.): died

Structure (SMILES)	EC50 (PC3 cell line)	EC50 (H460 cell line)	EC50 (H1299 cell line)	Plasma Stability (T = 40 mins) [2]	also measured
CC1=C(C2=C(C)C(=O)c3c(cc(O)c(O)c3CC3CCCC3)C2=O)C(=O)c2cc(O)c(O)c(CC3CCCC3)c2C1=O [Compound 6c, 5,5′-bis(cyclopentylmethyl)-6,6′,7,7′-tetrahydroxy-3,3′-dimethyl-2,2′-binaphthyl-1,1′,4,4′-tetraone]	5500 ± 740 nM	700 ± 340 nM	2320 ± 510 nM		LD50 primary CLL samples (primary CLL cells; comparison of 6c with 6a): 6.5 µM
CC1=C(C2=C(C)C(=O)c3c(cc(O)c(O)c3CCc3ccccc3)C2=O)C(=O)c2cc(O)c(O)c(CCc3ccccc3)c2C1=O [Compound 6e, 6,6′,7,7′-tetrahydroxy-3,3′-dimethyl-5,5′-diphenethyl-2,2′-binaphthyl-1,1′,4,4′-tetraone]	1400 ± 140 nM	1040 ± 130 nM	850 ± 360 nM	81%	EC50 (BP3 cell line): 8720 ± 2530 nM; EC50 (RS4;11 cell line): 4750 ± 10 nM; Microsomal Stability (T = 40 mins) [3]: 89%
CC1=C(C2=C(C)C(=O)c3c(cc(O)c(O)c3CCCc3ccccc3)C2=O)C(=O)c2cc(O)c(O)c(CCCc3ccccc3)c2C1=O [Compound 6g, 6,6′,7,7′-tetrahydroxy-3,3′-dimethyl-5,5′-bis(3-phenylpropyl)-2,2′-binaphthyl-1,1′,4,4′-tetraone]	1300 ± 180 nM	920 ± 90 nM	1530 ± 410 nM	87%	EC50 (RS4;11 cell line): 3830 ± 700 nM; Microsomal Stability (T = 40 mins) [3]: 88%
CC1=C(C2=C(C)C(=O)c3c(cc(O)c(O)c3C(=O)Cc3ccccc3)C2=O)C(=O)c2cc(O)c(O)c(C(=O)Cc3ccccc3)c2C1=O [Compound 7, 6,6′,7,7′-Tetrahydroxy-3,3′-dimethyl-5,5′-bis(2-phenylacetyl)-2,2′-binaphthyl-1,1′,4,4′-tetraone]	5440 ± 240 nM	7380 ± 1070 nM	> 30000 nM		EC50 (BP3 cell line): 9580 ± 4160 nM; IC50 (Bcl-XL): 160 to 630 nM
CC1=C(C2=C(C)C(=O)c3c(cc(O)c(O)c3C(=O)NCC(C)c3ccccc3)C2=O)C(=O)c2cc(O)c(O)c(C(=O)NCC(C)c3ccccc3)c2C1=O (centres unmarked) [Compound 8a, 6,6′,7,7′-Tetrahydroxy-3,3′-dimethyl-1,1′,4,4′-tetraoxo-N^5,N^5′-bis(2-phenylpropyl)-1,1′,4,4′-tetrahydro-2,2′-binaphthyl-5,5′-dicarboxamide]			> 30000 nM	91%	IC50 (Bcl-XL): 160 to 630 nM; Microsomal Stability (T = 40 mins) [3]: 71%
